Measurements: ChEMBL document CHEMBL5584354, “Impact of Conjugation of the Reactive Oxygen Species (ROS)-Generating Catalytic Moiety with Membrane-Active Antimicrobial Peptoids: Promoting Multitarget Mechanism and Enhancing Selectivity” (J Med Chem, 2024)
In brackets after ≈: the same amount, converted by molar mass. Activity calls are given as the source filed them. No cut-off for these calls is given here. Non-standard residues stand in square brackets, D forms with d. Residues, ends and D or L forms follow the SMILES beside them. Gly(N(CH2)2(3-indolyl)) = O=C(O)CNCCc1c[nH]c2ccccc12; Nspe = C[C@H](NCC(=O)O)c1ccccc1; Nphe = O=C(O)CNCc1ccccc1; Nlys = NCCCCNCC(=O)O

Key:
[1] = Cytotoxicity against mouse RAW264.7 cells assessed as cell survival at 5 uM incubated for 24 hrs by […] relative to control; format: toxicity, cell-based; details: read-out: Survival
[2] = Cytotoxicity against mouse RAW264.7 cells assessed as cell survival at 5 uM incubated for 24 hrs in presence of copper by […] relative to control; format: toxicity, cell-based; details: read-out: Survival
[3] = Cytotoxicity against HEK293 cells assessed as reduction in cell survival at 6.3 uM incubated for 24 hrs by WST-8 assay relative to control; format: toxicity, cell-based; details: human, read-out: Survival
[4] = Cytotoxicity against mouse L929 cells assessed as reduction in cell survival at 6.3 uM incubated for 24 hrs by WST-8 assay relative to control; format: toxicity, cell-based; details: read-out: Survival
[5] = Cytotoxicity against mouse RAW264.7 cells assessed as cell survival at 5 uM incubated for 24 hrs in presence of nickel by […] relative to control; format: toxicity, cell-based; details: read-out: Survival
Escherichia coli [6] = test: Antibacterial activity against colistin-resistant Escherichia coli NMS12 harboring extended-spectrum beta-lactamase assessed as inhibition of bacterial growth incubated for 24 hrs by broth dilution method; format: functional
[7] = Selectivity index, ratio of HC10 for hemolytic activity in male Sprague-Dawley rat erythrocytes to MIC for antibacterial activity against Escherichia coli ATCC 25922; format: toxicity; details: read-out: Selectivity Index
RAW264.7 [8] = test: Antiinflammatory activity in LPS-stimulated mouse RAW264.7 cells assessed as reduction in IL-1beta production at 10 uM incubated for 16 hrs by ELISA relative to control; format: functional; design: scale not given: the % may be the effect or the level left
RAW264.7 [9] = test: Antiinflammatory activity in LPS-stimulated mouse RAW264.7 cells assessed as reduction in nitrite production at 10 uM incubated for 16 hrs by ELISA relative to control; format: functional; design: scale not given: the % may be the effect or the level left
Escherichia coli [10] = test: Induction of lipid peroxidation in Escherichia coli ATCC 25922 assessed as increase in MDA level at 10 uM incubated for 2 hrs by TBARS assay; format: functional, organism-based
Acinetobacter baumannii = test: Antibacterial activity against carbapenem-resistant Acinetobacter baumannii NMS1707 harboring extended-spectrum beta-lactamase assessed as inhibition of bacterial growth incubated for 24 hrs by broth dilution method; format: functional
Cell membrane [11] = test: Disruption of outer membrane in Escherichia coli ATCC 25922 assessed as increase in absorbance measured every 5 mins for 90 mins by nitrocefin assay; format: cell membranes; details: dose 0-25 µM
Escherichia coli [12] = test: Antibacterial activity against Escherichia coli ATCC 25922 assessed as inhibition of bacterial growth incubated for 24 hrs by broth dilution method; format: functional
Klebsiella pneumoniae = test: Antibacterial activity against carbapenem-resistant Klebsiella pneumoniae NMS118 harboring extended-spectrum beta-lactamase assessed as inhibition of bacterial growth incubated for 24 hrs by broth dilution method; format: functional
Erythrocyte = test: Hemolytic activity in male Sprague-Dawley rat erythrocytes assessed as concentration required for 10% hemolysis incubated for 1 hr by absorbance based method; format: toxicity, cell-based
RAW264.7 [13] = test: Cytotoxicity against mouse RAW264.7 cells assessed as cell killing incubated for 24 hrs by MTS assay; format: toxicity, cell-based; details: raw264.7, 24 h
RAW264.7 [14] = test: Antiinflammatory activity in LPS-stimulated mouse RAW264.7 cells assessed as reduction in TNFalpha production at 10 uM incubated for 16 hrs by ELISA relative to control; format: functional; design: scale not given: the % may be the effect or the level left
Cell membrane [15] = test: Disruption of inner membrane in Escherichia coli ATCC 25922 assessed as increase in absorbance incubated for 1 hr by ONPG assay; format: cell membranes; details: dose 0-25 µM
[16] = Hemolytic activity in male Sprague-Dawley rat erythrocytes at 25 uM incubated for 1 hr by absorbance based method relative to control; format: toxicity, cell-based, Erythrocyte; details: read-out: Activity
Lipopolysaccharide (LPS) = test: Binding affinity to Escherichia coli O111:B4 LPS at 0 to 25 uM BODIPY-TR-cadaverine substitution assay; format: subcellular; details: dose 0-25 µM
[17] = Cytotoxicity against mouse RAW264.7 cells assessed as cell viability at 10 uM incubated for 24 hrs by […] relative to control; format: toxicity, cell-based; details: read-out: Activity
[18] = Hemolytic activity in male Sprague-Dawley rat erythrocytes at 100 uM incubated for 1 hr by absorbance based method relative to control; format: toxicity, cell-based, Erythrocyte; details: read-out: Activity
Escherichia coli [19] = test: Antibacterial activity against carbapenem-resistant Escherichia coli NMS11035 harboring extended-spectrum beta-lactamase assessed as inhibition of bacterial growth incubated for 24 hrs by broth dilution method; format: functional
[20] = Hemolytic activity in male Sprague-Dawley rat erythrocytes assessed as concentration required for 50% hemolysis incubated for 1 hr by absorbance based method; format: toxicity, cell-based, Erythrocyte
Escherichia coli [21] = test: Induction of lipid peroxidation in Escherichia coli ATCC 25922 at 12.5 uM incubated for 1 hrs by BODIPY 581/591 C11 dye based flow cytometry analysis; format: functional, organism-based
Staphylococcus aureus = test: Antibacterial activity against Staphylococcus aureus ATCC 25923 assessed as inhibition of bacterial growth incubated for 24 hrs by broth dilution method; format: functional
HaCaT = test: Cytotoxicity against human HaCaT cells assessed as cell killing incubated for 24 hrs by MTS assay; format: toxicity, cell-based
MRC5 = test: Cytotoxicity against human MRC5 cells assessed as cell killing incubated for 24 hrs by MTS assay; format: toxicity, cell-based; details: mrc5, 24 h
[22] = Cytotoxicity against mouse RAW264.7 cells assessed as cell viability at 20 uM incubated for 24 hrs by […] relative to control; format: toxicity, cell-based; details: read-out: Activity
RAW264.7 [23] = test: Antiinflammatory activity in LPS-stimulated mouse RAW264.7 cells assessed as reduction in IL-6 production at 10 uM incubated for 16 hrs by ELISA relative to control; format: functional; design: scale not given: the % may be the effect or the level left
HEK293 = test: Cytotoxicity against HEK293 cells assessed as cell killing incubated for 24 hrs by MTS assay; format: toxicity, cell-based; details: human, hek293, 24 h
[24] = Hemolytic activity in male Sprague-Dawley rat erythrocytes at 50 uM incubated for 1 hr by absorbance based method relative to control; format: toxicity, cell-based, Erythrocyte; details: read-out: Activity
DNA = test: Binding affinity to pUC19 plasmid DNA (unknown origin) assessed as smearing and retardation of DNA bands at 25 uM incubated for 2 hrs by agarose gel imaging method; format: nucleic-acid assay
Escherichia coli [25] = test: Induction of lipid peroxidation in Escherichia coli ATCC 25922 assessed as increase in green fluorescence at 12.5 uM incubated for 1 hrs by BODIPY 581/591 C11 dye based confocal microscopic analysis; format: functional, organism-based

Q: Which viability at 24 h, 5 µM [1] does the source give for `CC[C@H](C)[C@H](NC(=O)CN)C(=O)NCC(=O)N[C@@H](C)C(=O)N[C@H](C(=O)N[C@@H](CC(C)C)C(=O)N[C@@H](CCCCN)C(=O)N[C@H](C(=O)N[C@@H](CC(C)C)C(=O)N[C@H](C(=O)N[C@H](C(=O)NCC(=O)N[C@@H](CC(C)C)C(=O)N1CCC[C@H]1C(=O)N[C@@H](C)C(=O)N[C@@H](CC(C)C)C(=O)N[C@H](C(=O)N[C@@H](CO)C(=O)N[C@@H](Cc1c[nH]c2ccccc12)C(=O)N[C@H](C(=O)N[C@@H](CCCCN)C(=O)N[C@@H](CCCNC(=N)N)C(=O)N[C@@H](CCCCN)C(=O)N[C@@H](CCCNC(=N)N)C(=O)N[C@@H](CCC(N)=O)C(=O)N[C@@H](CCC(N)=O)C(N)=O)[C@@H](C)CC)[C@@H](C)CC)[C@@H](C)O)[C@@H](C)O)C(C)C)C(C)C` [MELITTIN] here?
A: < 24.6%

Q: What about the viability at 24 h, 5 µM [2] of the same compound?
A: < 24.6%

Q: What about the viability at 24 h, 6.3 µM [3] of the same compound?
A: < 21.5%

Q: And the viability at 24 h, 6.3 µM [4]?
A: < 21.5%

Q: What about the viability at 24 h, 5 µM [5] of the same compound?
A: < 24.6%

Q: With `C[C@@H](c1ccccc1)N(CC(=O)N(CCCCN)CC(=O)N(CCc1c[nH]c2ccccc12)CC(=O)N(CCc1c[nH]c2ccccc12)CC(N)=O)C(=O)CN(CCCCN)C(=O)CN(CCCCN)C(=O)CN(C(=O)CN(C(=O)CN(CCCCN)C(=O)CN(C(=O)CN(C(=O)CNCCCCN)[C@@H](C)c1ccccc1)[C@@H](C)c1ccccc1)[C@@H](C)c1ccccc1)[C@@H](C)c1ccccc1` (H-[Nlys][Nspe][Nspe][Nlys][Nspe][Nspe][Nlys][Nlys][Nspe][Nlys][Gly(N(CH2)2(3-indolyl))][Gly(N(CH2)2(3-indolyl))]-NH2) as the compound, how does the MIC (Escherichia coli [6]) read?
A: 12.5 µM (≈ 23.3 µg/mL)

Q: What about the selectivity ratio [7] of the same compound?
A: > 15.8

Q: What about the Activity (RAW264.7 [8]) of the same compound?
A: 72.9%

Q: And the Activity (RAW264.7 [9])?
A: 88.7%

Q: And the Activity (Escherichia coli [10])?
A: Active

Q: What about the MIC (Acinetobacter baumannii) of the same compound?
A: 3.1 µM (≈ 5.78 µg/mL)

Q: And the Activity (Cell membrane [11])?
A: Dose-Dependent Effect

Q: What about the MIC (Escherichia coli [12]) of the same compound?
A: 6.3 µM (≈ 11.7 µg/mL)

Q: What about the MIC (Klebsiella pneumoniae) of the same compound?
A: 12.5 µM (≈ 23.3 µg/mL)

Q: What about the HC10 (Erythrocyte) of the same compound?
A: > 100 µM

Q: What about the LC50 (RAW264.7 [13]) of the same compound?
A: 14.9 µM

Q: And the Activity (RAW264.7 [14])?
A: 54.4%

Q: What about the Activity (Cell membrane [15]) of the same compound?
A: Dose-Dependent Effect

Q: What about the hemolysis at 1 h, 25 µM [16] of the same compound?
A: 2.72%

Q: And the Activity (Lipopolysaccharide (LPS))?
A: Active

Q: And the viability at 24 h, 10 µM [17]?
A: 55.9%

Q: What about the hemolysis at 1 h, 100 µM [18] of the same compound?
A: 6.7%

Q: And the MIC (Escherichia coli [19])?
A: 6.3 µM (≈ 11.7 µg/mL)

Q: What about the HC50 at 1 h [20] of the same compound?
A: > 100 µM

Q: What about the Activity (Escherichia coli [21]) of the same compound?
A: Active

Q: What about the MIC (Staphylococcus aureus) of the same compound?
A: 6.3 µM (≈ 11.7 µg/mL)

Q: What about the LC50 (HaCaT) of the same compound?
A: 18.8 µM

Q: And the LC50 (MRC5)?
A: 11.8 µM

Q: And the viability at 24 h, 20 µM [22]?
A: 14.7%

Q: And the Activity (RAW264.7 [23])?
A: 99%

Q: What about the LC50 (HEK293) of the same compound?
A: 16.3 µM

Q: What about the hemolysis at 1 h, 50 µM [24] of the same compound?
A: 7.85%

Q: And the Activity (DNA)?
A: Active

Q: What about the Activity (Escherichia coli [25]) of the same compound?
A: Active

Q: With `C[C@@H](c1ccccc1)N(CC(N)=O)C(=O)CN(C(=O)CN(CCCCN)C(=O)CN(Cc1ccccc1)C(=O)CN(Cc1ccccc1)C(=O)CN(CCCCN)C(=O)CN(Cc1ccccc1)C(=O)CN(Cc1ccccc1)C(=O)CN(CCCCN)C(=O)CN(CCc1c[nH]c2ccccc12)C(=O)CN(CCc1c[nH]c2ccccc12)C(=O)CN(CCCCN)C(=O)[C@H](Cc1c[nH]cn1)NC(=O)CNC(=O)CN)[C@@H](C)c1ccccc1` (H-GGH[Nlys][Gly(N(CH2)2(3-indolyl))][Gly(N(CH2)2(3-indolyl))][Nlys][Nphe][Nphe][Nlys][Nphe][Nphe][Nlys][Nspe][Nspe]-NH2) as the compound, how does the selectivity ratio [7] read?
A: 1.3

Q: What about the MIC (Escherichia coli [12]) of the same compound?
A: 12.5 µM (≈ 26.2 µg/mL)

Q: What about the HC10 (Erythrocyte) of the same compound?
A: 16.3 µM

Q: What about the hemolysis at 1 h, 25 µM [16] of the same compound?
A: 13.8%

Q: And the hemolysis at 1 h, 100 µM [18]?
A: 40.2%

Q: And the HC50 at 1 h [20]?
A: > 100 µM

Q: What about the MIC (Staphylococcus aureus) of the same compound?
A: 1.6 µM (≈ 3.35 µg/mL)

Q: And the hemolysis at 1 h, 50 µM [24]?
A: 25.5%
